In patent publication US12018093B2, “Hemiasterlin derivatives and antibody-drug conjugates including same” (priority 2017, dated 2024):
Where “and” joins values, the source holds several entries; their conditions need not be identical. Equal values may be shown once. Entries after “also recorded” stand apart in the source; their conditions may differ. Read-outs that look alike come from different tables or passages of the source.

Legend:
SU-DHL-1 cells = experiment: Cellular toxicity test (1), CellTiter-Glo, SU-DHL-1; assay type: cell-based; conditions: Homo sapiens, 96 h, cultured 4 days, cell viability
Experimental: (§1) SU-DHL-1 cells (American Type Culture Collection, hereinafter, ATCC) and Karpas-299 cells (European Collection of Authenticated Cell Cultures, hereinafter, ECACC), which are human lymphoma cell lines, were cultured in RPMI 1640 (GIBCO) containing 10% fetal bovine serum (MP Biomedicals) (hereinafter, referred to as the “culture medium” in this test). SU-DHL-1 cells and Karpas-299 cells were prepared to be 2×10^6 cells/mL in the culture medium, and were added to a 96 well microplate for cell culturing in an amount of 50 μL for each well. Compounds of Examples or hemiasterlin 4 times diluted with the culture medium in 8 stages were added to the microplate in an amount of 50 μL for each well. To wells to which the test substance was not added, the culture medium was added in an amount of 50 μL for each well. These were cultured at 37 degree under 5% CO2 for 4 days. After culturing, the microplate was taken out from the incubator, and was left at rest at room temperature for 10 minutes. To each well, 50 μL of CellTiter-Glo Luminescent Cell Viability Assay (Promega) was added, and the resultant mixture was stirred. This mixture was incubated at a dark place for 20 minutes. Using a microplate luminometer, luminescence at each well was measured, thereby calculating the cell viability for each concentration of the test substance. From the cell viability, the IC50 value of the test substance was determined.
(§2) The IC50 value was calculated by the following formula: IC50(nM)=antilog(LOG10(a/b)×(e−d)/(c−d)+LOG10b) • a: concentration a of test substance • b: concentration b of test substance • c: cell viability upon adding test substance with concentration a • d: cell viability upon adding test substance with concentration b • e: intermediate value between maximum and minimum among cell viabilities upon • adding test substances with different concentrations (a and b are concentrations crossing the cell viability e, and a>b is indicated).
(§3) The cell viability at each concentration was calculated by the following formula: Cell Viability (%)=a′/b′×100 • a′: mean value of luminescence amount of wells to which test substance was added (n=6) • b′: mean value of luminescence amount of wells to which test substance was not added (n=6) • (n represents the number of evaluations performed per test substance concentration).

Karpas-299 cells = experiment: Cellular toxicity test (1), CellTiter-Glo, Karpas-299; assay type: cell-based; conditions: Homo sapiens, 96 h, cultured 4 days, cell viability
Experimental: as §1, §2, §3

SK-BR-3 cells = experiment: Cellular toxicity test (2), CellTiter-Glo, SK-BR-3; assay type: cell-based; conditions: Homo sapiens, 72 h, cultured 3 days, cell viability
Experimental: as §2, §3
SK-BR-3 cells (ATCC), which are a human breast cancer cell line, were cultured in McCoy's 5A (GIBCO) containing 10% fetal bovine serum (MP Biomedicals) (hereinafter, referred to as the “culture medium” in this test). SK-BR-3 cells were prepared to be 2×10^6 cells/mL in the culture medium, added to a 96 well microplate for cell culturing in an amount of 50 μL for each well, and cultured at 37 degree under 5% CO2 overnight, and then, compounds of Examples or hemiasterlin 4 times diluted with the culture medium in 8 stages were added to the microplate in an amount of 50 μL for each well. To wells to which the test substance was not added, the culture medium was added in an amount of 50 μL for each well. These were cultured at 37 degree under 5% CO2 for 3 days. After culturing, the microplate was taken out from the incubator, and was left at rest at room temperature for 10 minutes. 50 μL of CellTiter-Glo Luminescent Cell Viability Assay (Promega) was added, and the resultant mixture was stirred. This mixture was incubated at a dark place for 20 minutes. Using a microplate luminometer, luminescence at each well was measured, thereby calculating the cell viability for each concentration of the test substance. The IC50 value was calculated in accordance with the method described in Test Example 3.

in vitro = conditions: PAMPA, pH 7.4
Experimental: By the parallel artificial membrane permeability assay (PAMPA), the membrane permeability of compounds of Examples was examined as follows: To the donor plate, System solution (pION inc.) and GIT Lipid-0 (pION inc.) were added in an amount of 200 μL and 4 μL for each well, respectively. To the acceptor plate, Acceptor Sink Buffer (pION inc.) was added in an amount of 200 μL. Both plates were superposed and incubated at 37° C. for 4 hours, and then, UVs in the solutions on the side of acceptor and on the side of donor were measured with an UV plate reader (190 to 500 nm). Compounds with poor UV absorption were measured by LC-MS. The permeability coefficient Pe (10^−6 cm/sec) of the drug was calculated by the following formula.

[1] = Pharmacokinetic evaluation test using mice; assay type: in vivo
Experimental: A pharmacokinetic evaluation test was performed by single intravenous administration of Example 4 at a dose of 1.0 mg/kg to mice. A calibration curve was made from measurements of Example 4 with known concentration, and by interpolating measurements of each specimen to this, the amount of the compound contained in unit volume of each plasma was calculated using LC-MS. Pharmacokinetics of compound 14 and hemiasterlin were similarly evaluated.
(n.d. in the tables means less than the detection limit value (0.5 ng/mL).)

porcine tubulin = porcine tubulin (Sus scrofa, UniProt P02550+P02554); experiment: Activity for inhibiting microtubule polymerization using porcine tubulins (1); assay type: biochemical; parameters: purchased Cytoskeleton Inc. BK006P; conditions: compound 0.91 μM; absorbance at 340 nm, 37° C.; FIG. 1 and FIG. 2
porcine tubulin, sequence (P02554 whole entry): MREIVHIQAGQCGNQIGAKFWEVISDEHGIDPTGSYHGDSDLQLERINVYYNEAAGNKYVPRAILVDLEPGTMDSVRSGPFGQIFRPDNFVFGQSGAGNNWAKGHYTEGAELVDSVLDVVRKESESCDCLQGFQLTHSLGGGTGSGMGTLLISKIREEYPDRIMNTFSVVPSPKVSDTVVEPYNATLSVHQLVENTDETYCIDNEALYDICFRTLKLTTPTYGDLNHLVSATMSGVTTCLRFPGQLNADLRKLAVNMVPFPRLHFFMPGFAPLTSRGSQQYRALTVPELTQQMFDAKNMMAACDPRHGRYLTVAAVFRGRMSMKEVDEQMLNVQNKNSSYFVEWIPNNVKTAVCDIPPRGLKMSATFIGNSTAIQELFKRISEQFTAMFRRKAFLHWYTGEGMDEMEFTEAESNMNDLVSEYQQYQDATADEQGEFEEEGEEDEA
porcine tubulin, sequence (P02550 whole entry): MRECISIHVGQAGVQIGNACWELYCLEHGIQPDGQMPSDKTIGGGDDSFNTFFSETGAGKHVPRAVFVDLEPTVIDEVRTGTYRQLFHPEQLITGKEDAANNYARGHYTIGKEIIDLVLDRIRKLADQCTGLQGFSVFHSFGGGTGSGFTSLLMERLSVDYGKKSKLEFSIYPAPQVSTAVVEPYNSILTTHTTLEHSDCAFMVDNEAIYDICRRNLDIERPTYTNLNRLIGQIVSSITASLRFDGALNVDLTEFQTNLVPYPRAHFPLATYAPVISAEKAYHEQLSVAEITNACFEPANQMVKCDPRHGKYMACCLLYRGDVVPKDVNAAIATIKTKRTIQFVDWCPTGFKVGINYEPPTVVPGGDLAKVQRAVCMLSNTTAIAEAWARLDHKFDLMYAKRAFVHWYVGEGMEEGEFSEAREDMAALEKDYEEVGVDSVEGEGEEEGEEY

[2] = single intravenous 1.0 mg/kg, 6 hr
[3] = single intravenous 1.0 mg/kg, 24 hr

Which IC50 (SU-DHL-1 cells) does the source give for `CN[C@H](C(=O)N[C@H](C(=O)N(C)[C@H](/C=C(\C)C(=O)N[C@H](CCC(=O)O)C(=O)O)C(C)C)C(C)(C)C)C(C)(C)c1cn(C)c2ccccc12` [Example 4] here?
The IC50 was 250 nM.

And the IC50 (Karpas-299 cells)?
Its IC50 is 291 nM.

What about the IC50 (SK-BR-3 cells) of the same molecule?
The IC50 was 193 nM.

And the Papp (in vitro)?
Its Papp is under 0.1 ×10⁻⁶ cm/s.

What about the half-life ([1]; mouse, plasma, 1 mg/kg, single intravenous administration) of the same molecule?
Its half-life is under 30 min.

And the concentration at 0.5 hr ([1]; mouse, plasma, iv, 1 mg/kg, single intravenous 1.0 mg/kg, 0.5 hr, read-out: Blood concentration, mean value)?
Its concentration at 0.5 hr is 13.7 ng/mL.

What about the concentration at 2 hr ([1]; mouse, plasma, iv, 1 mg/kg, single intravenous 1.0 mg/kg, 2 hr, read-out: Blood concentration, individual mice 1-3) of the same molecule?
The concentration at 2 hr was 0.7 ng/mL.

And the concentration at 2 hr ([1]; mouse, plasma, iv, 1 mg/kg, single intravenous 1.0 mg/kg, 2 hr, read-out: Blood concentration, mean value)?
Its concentration at 2 hr is 0.8 ng/mL.

What about the “Blood concentration, individual mice 1-3” value ([1]; single intravenous 1.0 mg/kg, 0.5 hr, 1 mg/kg) of the same molecule?
The value was 10.3 ng/mL and 10.2 ng/mL and 20.6 ng/mL.

What about the “Blood concentration, individual mice 1-3” value ([1]; single intravenous 1.0 mg/kg, 2 hr, 1 mg/kg) of the same molecule?
Its value is 1.0 ng/mL and 0.7 ng/mL.

What about the “Blood concentration, individual mice 1-3” value [1, 2] of the same molecule?
Its value is “n.d. (less than the detection limit value (0.5 ng/mL))”.

What about the “Blood concentration, mean value” [1, 2] of the same molecule?
The value was “n.d. (less than the detection limit value (0.5 ng/mL))”.

What about the “Blood concentration, individual mice 1-3” value [1, 3] of the same molecule?
Its value is “n.d. (less than the detection limit value (0.5 ng/mL))”.

And the “Blood concentration, mean value” [1, 3]?
Its value is “n.d. (less than the detection limit value (0.5 ng/mL))”.

And the “Blood concentration of Example 4 detected as metabolite of Example 14” value ([1]; single intravenous administration of Example 14, 6 hr, animal 1)?
Its value is “n.d. (less than the detection limit value (0.5 ng/mL))”.

What about the “Blood concentration of Example 4 detected as metabolite of Example 14” value ([1]; single intravenous administration of Example 14, 6 hr, animal 2) of the same molecule?
Its value is “n.d. (less than the detection limit value (0.5 ng/mL))”.

And the “Blood concentration of Example 4 detected as metabolite of Example 14” value ([1]; single intravenous administration of Example 14, 6 hr, animal 3)?
Its value is “n.d. (less than the detection limit value (0.5 ng/mL))”.

What about the “Blood concentration of Example 4 detected as metabolite of Example 14, mean” value ([1]; single intravenous administration of Example 14, 6 hr) of the same molecule?
The value was “n.d. (less than the detection limit value (0.5 ng/mL))”.

And the “Blood concentration of Example 4 detected as metabolite of Example 14” value ([1]; single intravenous administration of Example 14, 24 hr, animal 1)?
The value was “n.d. (less than the detection limit value (0.5 ng/mL))”.

And the “Blood concentration of Example 4 detected as metabolite of Example 14” value ([1]; single intravenous administration of Example 14, 24 hr, animal 2)?
Its value is “n.d. (less than the detection limit value (0.5 ng/mL))”.

And the “Blood concentration of Example 4 detected as metabolite of Example 14” value ([1]; single intravenous administration of Example 14, 24 hr, animal 3)?
The value was “n.d. (less than the detection limit value (0.5 ng/mL))”.

And the “Blood concentration of Example 4 detected as metabolite of Example 14, mean” value ([1]; single intravenous administration of Example 14, 24 hr)?
The value was “n.d. (less than the detection limit value (0.5 ng/mL))”.

And the “activity for inhibiting microtubule polymerization” value (porcine tubulin)?
The value was “exhibited activities for inhibiting microtubule polymerization; also recorded: exhibited a stronger polymerization inhibitory activity”.
